PMC11971462, “Generation and validation of a novel multitarget small molecule in glioblastoma” (Cell Death & Disease, 2025)

Test system: GNS166 cells
Experiment: Label-free proteomics differential expression
Format: cell-based, human
Method: Proteomic studies were performed by the Proteomics Facility of the CIC bioGUNE by label-free relative quantification on nLC MS/MS. […] In both approaches, the top 20 enriched terms were plotted and the pathways were clustered using divisive hierarchical clustering based on pairwise Jaccard distances.

Q: Which results are given for `C#CCN(Cc1cc2cc(OCCCN3CCCCC3)ccc2n1S(=O)(=O)c1ccccc1)C(=O)CCCCCCC(=O)NO` [DDI]?
A: LogFC STOM_HUMAN (protein P27105 GN=STOM): 1.045; LogFC CD82_HUMAN (protein P27701 GN=CD82): -1.866; Direction PYR1_HUMAN (protein P27708): Down; LogFC PYR1_HUMAN (protein P27708): -0.3818; LogFC GSTM2_HUMAN (protein P28161 GN=GSTM2): 1.203; Direction DPOD1_HUMAN (protein P28340): Down; LogFC DPOD1_HUMAN (protein P28340): -0.5649; LogFC GRAN_HUMAN (protein P28676 GN=GCA): 2.772; Direction CD34_HUMAN (protein P28906): Down; LogFC CD34_HUMAN (protein P28906): -1.0921; LogFC TPP2_HUMAN (protein P29144 GN=TPP2): 0.5124; LogFC CCN2_HUMAN (protein P29279 GN=CCN2): 1.704; Direction EPHA2_HUMAN (protein P29317): Down; LogFC EPHA2_HUMAN (protein P29317): -1.4702; LogFC AL4A1_HUMAN (protein P30038 GN=ALDH4A1): 0.9924; LogFC BLVRB_HUMAN (protein P30043 GN=BLVRB): 1.9711; LogFC CDC27_HUMAN (protein P30260 GN=CDC27): -0.6942; LogFC CCND3_HUMAN (protein P30281 GN=CCND3): 1.575; Direction NMT1_HUMAN (protein P30419): Down; LogFC NMT1_HUMAN (protein P30419): -0.6586; Direction UFO_HUMAN (protein P30530): Down; LogFC UFO_HUMAN (protein P30530): -2.709; Direction ILEU_HUMAN (protein P30740): Down; LogFC ILEU_HUMAN (protein P30740): -0.3615; Direction RIR2_HUMAN (protein P31350): Down; LogFC RIR2_HUMAN (protein P31350): -2.735; Direction DNJA1_HUMAN (protein P31689): Down; LogFC DNJA1_HUMAN (protein P31689): -0.6634; LogFC AKT1_HUMAN (protein P31749 GN=AKT1): -0.2725; Direction TF2H1_HUMAN (protein P32780): Down; LogFC TF2H1_HUMAN (protein P32780): -0.6552; LogFC TTK_HUMAN (protein P33981 GN=TTK): -1.092; LogFC VATE1_HUMAN (protein P36543 GN=ATP6V1E1): 1.641; LogFC PP1G_HUMAN (protein P36873 GN=PPP1CC): 0.989; LogFC GNL1_HUMAN (protein P36915 GN=GNL1): 0.9003; Direction COIL_HUMAN (protein P38432): Down; LogFC COIL_HUMAN (protein P38432): -1.999; LogFC LICH_HUMAN (protein P38571 GN=LIPA): 4.157; LogFC VATA_HUMAN (protein P38606 GN=ATP6V1A): 1.1187; Direction COIA1_HUMAN (protein P39060): Down; LogFC COIA1_HUMAN (protein P39060): -1.248; LogFC MDHC_HUMAN (protein P40925 GN=MDH1): 0.224; LogFC IF2G_HUMAN (protein P41091 GN=EIF2S3): 0.129; LogFC EIF2D_HUMAN (protein P41214 GN=EIF2D): -1.485; Direction UBA7_HUMAN (protein P41226): Down; LogFC UBA7_HUMAN (protein P41226): -1.657; LogFC IPP2_HUMAN (protein P41236 GN=PPP1R2): 1.34; LogFC CSK_HUMAN (protein P41240 GN=CSK): -0.3935; LogFC LAP2A_HUMAN (protein P42166 GN=TMPO): -1.129; LogFC LAP2B_HUMAN (protein P42167 GN=TMPO): -0.9256; LogFC STAT1_HUMAN (protein P42224 GN=STAT1): 0.5798; LogFC PK3CA_HUMAN (protein P42336 GN=PIK3CA): -1.283; LogFC MTOR_HUMAN (protein P42345 GN=MTOR): -0.7122; LogFC CNDD3_HUMAN (protein P42695 GN=NCAPD3): -2.052; LogFC THIM_HUMAN (protein P42765 GN=ACAA2): 1.09; Direction KI67_HUMAN (protein P46013): Down; LogFC KI67_HUMAN (protein P46013): -1.787; LogFC ATRX_HUMAN (protein P46100 GN=ATRX): -0.9089; Direction IF2M_HUMAN (protein P46199): Down; LogFC IF2M_HUMAN (protein P46199): -0.8269; LogFC MP2K3_HUMAN (protein P46734 GN=MAP2K3): 1.1042; Direction STT3A_HUMAN (protein P46977): Down; LogFC STT3A_HUMAN (protein P46977): -0.5679; LogFC PA24A_HUMAN (protein P47712 GN=PLA2G4A): 2.918; LogFC IF1AX_HUMAN (protein P47813 GN=EIF1AX): 0.7555; Direction AGRE5_HUMAN (protein P48960): Down; LogFC AGRE5_HUMAN (protein P48960): -1.142; LogFC UB2R1_HUMAN (protein P49427 GN=CDC34): 1.5155; Direction SYHM_HUMAN (protein P49590): Down; LogFC SYHM_HUMAN (protein P49590): -1.4939; LogFC VPS41_HUMAN (protein P49754 GN=VPS41): 1.216; Direction NU153_HUMAN (protein P49790): Down; LogFC NU153_HUMAN (protein P49790): -1.0035; Direction DNLI3_HUMAN (protein P49916): Down; LogFC DNLI3_HUMAN (protein P49916): -1.6; LogFC GBG4_HUMAN (protein P50150 GN=GNG4): 2.6107; Direction SERPH_HUMAN (protein P50454): Down; LogFC SERPH_HUMAN (protein P50454): -1.017; Direction KNTC1_HUMAN (protein P50748): Down; LogFC KNTC1_HUMAN (protein P50748): -0.8446; LogFC BCAM_HUMAN (protein P50895 GN=BCAM): 1.4044; LogFC PLCD1_HUMAN (protein P51178 GN=PLCD1): 0.5988; LogFC SMCA2_HUMAN (protein P51531 GN=SMARCA2): -1.3906; Direction SMCA4_HUMAN (protein P51532): Down; LogFC SMCA4_HUMAN (protein P51532): -1.513; LogFC TPMT_HUMAN (protein P51580 GN=TPMT): 1.506; LogFC IRAK1_HUMAN (protein P51617 GN=IRAK1): -0.8883; Direction GPM6A_HUMAN (protein P51674): Down; LogFC GPM6A_HUMAN (protein P51674): -2.493; Direction STA5B_HUMAN (protein P51692): Down; LogFC STA5B_HUMAN (protein P51692): -2.183; LogFC PLXA3_HUMAN (protein P51805 GN=PLXNA3): 0.8663; Direction CCNH_HUMAN (protein P51946): Down; LogFC CCNH_HUMAN (protein P51946): -0.7175; LogFC UB2E1_HUMAN (protein P51965 GN=UBE2E1): -1.604; Direction IMA1_HUMAN (protein P52292): Down; LogFC IMA1_HUMAN (protein P52292): -0.7516; LogFC EFNB2_HUMAN (protein P52799 GN=EFNB2): 1.665; LogFC ARFP1_HUMAN (protein P53367 GN=ARFIP1): 1.754; Direction ACLY_HUMAN (protein P53396): Down; LogFC ACLY_HUMAN (protein P53396): -0.3852; Direction SC5A3_HUMAN (protein P53794): Down; LogFC SC5A3_HUMAN (protein P53794): -1.548; LogFC SMTN_HUMAN (protein P53814 GN=SMTN): -1.694; LogFC HSP72_HUMAN (protein P54652 GN=HSPA2): 3.712; LogFC SNAA_HUMAN (protein P54920 GN=NAPA): 0.6489; Direction IF5_HUMAN (protein P55010): Down; LogFC IF5_HUMAN (protein P55010): -0.5429; LogFC S12A2_HUMAN (protein P55011 GN=SLC12A2): 0.5141; LogFC XPO2_HUMAN (protein P55060 GN=CSE1L): -0.4776; LogFC BI1_HUMAN (protein P55061 GN=TMBIM6): -0.6524; Direction MAZ_HUMAN (protein P56270): Down; LogFC MAZ_HUMAN (protein P56270): -1.733; Direction SC61G_HUMAN (protein P60059): Down
